Source: PubChem BioAssay AID248 (DTP/NCI, 2004)
Where “and” joins values, the source holds several entries; their conditions need not be identical. Equal entries are not always repeated. Toxic doses and inconclusive results are not listed.

System: L1210 leukemia ip in BDF1 mice, survival T/C
Assay: NCI In Vivo Anticancer Drug Screen. Data for tumor model L1210 Leukemia (intraperitoneal) in B6D2F1 (BDF1) mice
Details: endpoint: mean survival time, higher = longer survival
Procedure, shortened: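 Antitumor effect is assessed in tumor-bearing animals. Survival in the compound arm is compared with a vehicle-dosed control arm and expressed as their quotient.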

CC(C)=CCC1=C(O)c2ccccc2C(=O)C1=O
T/C (dose: 0.5 mg/kg/injection, schedule: Q01DX Z (ip), vehicle: water): 91 % of control
T/C (dose: 2.0 mg/kg/injection, schedule: Q01DX Z (ip), vehicle: water): 94 % of control
T/C (dose: 8.0 mg/kg/injection, schedule: Q01DX Z (ip), vehicle: water): 91 % of control
T/C (dose: 11.0 mg/kg/injection, schedule: Q01DX009 (ip), vehicle: carboxymethylcellulose (CMC)): 107 % of control
T/C (dose: 11.0 mg/kg/injection, schedule: Q01DX009 (ip), vehicle: other): 95 % of control and 102 % of control
T/C (dose: 15.0 mg/kg/injection, schedule: Q01DX Z (ip), vehicle: water): 88 % of control
T/C (dose: 16.67 mg/kg/injection, schedule: Q#B X027 (ip), vehicle: water): 111 % of control
T/C (dose: 16.67 mg/kg/injection, schedule: Q#B X027 (sc), vehicle: water): 97 % of control
T/C (dose: 17.0 mg/kg/injection, schedule: Q01DX009 (ip), vehicle: carboxymethylcellulose (CMC)): 98 % of control
T/C (dose: 17.0 mg/kg/injection, schedule: Q01DX009 (ip), vehicle: other): 94 % of control and 103 % of control
T/C (dose: 20.0 mg/kg/injection, schedule: Q01DX Z (ip), vehicle: water): 96 % of control
T/C (dose: 25.0 mg/kg/injection, schedule: Q01DX009 (ip), vehicle: carboxymethylcellulose (CMC)): 103 % of control
T/C (dose: 25.0 mg/kg/injection, schedule: Q01DX009 (ip), vehicle: other): 95 % of control and 97 % of control
T/C (dose: 25.0 mg/kg/injection, schedule: Q#A X Z (ip), vehicle: water): 90 % of control
T/C (dose: 30.0 mg/kg/injection, schedule: Q01DX Z (ip), vehicle: water): 88 % of control
T/C (dose: 33.33 mg/kg/injection, schedule: Q#B X027 (oral), vehicle: water): 100 % of control
T/C (dose: 33.33 mg/kg/injection, schedule: Q#B X027 (sc), vehicle: water): 100 % of control
T/C (dose: 37.5 mg/kg/injection, schedule: Q01DX009 (ip), vehicle: carboxymethylcellulose (CMC)): 98 % of control
T/C (dose: 37.5 mg/kg/injection, schedule: Q01DX009 (ip), vehicle: other): 100 % of control and 102 % of control
T/C (dose: 40.0 mg/kg/injection, schedule: Q01DX Z (ip), vehicle: water): 96 % of control
T/C (dose: 50.0 mg/kg/injection, schedule: Q01DX015 (ip), vehicle: water): 95 % of control
T/C (dose: 50.0 mg/kg/injection, schedule: Q#A X Z (ip), vehicle: water): 97 % of control
T/C (dose: 56.0 mg/kg/injection, schedule: Q01DX009 (ip), vehicle: carboxymethylcellulose (CMC)): 102 % of control
T/C (dose: 60.0 mg/kg/injection, schedule: Q01DX Z (ip), vehicle: water): 94 % of control
T/C (dose: 66.67 mg/kg/injection, schedule: Q#B X027 (ip), vehicle: water): 120 % of control
T/C (dose: 66.67 mg/kg/injection, schedule: Q#B X027 (oral), vehicle: water): 97 % of control
T/C (dose: 66.67 mg/kg/injection, schedule: Q#B X027 (sc), vehicle: water): 100 % of control
T/C (dose: 84.0 mg/kg/injection, schedule: Q01DX009 (ip), vehicle: other): 102 % of control and 104 % of control
T/C (dose: 90.0 mg/kg/injection, schedule: Q01DX Z (ip), vehicle: water): 92 % of control
T/C (dose: 100.0 mg/kg/injection, schedule: Q01DX Z (oral), vehicle: water): 91 % of control
T/C (dose: 100.0 mg/kg/injection, schedule: Q#A X Z (ip), vehicle: water): 95 % of control
T/C (dose: 125.0 mg/kg/injection, schedule: Q#A X018 (oral), vehicle: other): 102 % of control
T/C (dose: 126.0 mg/kg/injection, schedule: Q01DX009 (ip), vehicle: other): 101 % of control and 104 % of control
T/C (dose: 133.33 mg/kg/injection, schedule: Q#B X027 (oral), vehicle: water): 102 % of control
T/C (dose: 135.0 mg/kg/injection, schedule: Q01DX Z (ip), vehicle: water): 94 % of control
T/C (dose: 189.0 mg/kg/injection, schedule: Q01DX009 (ip), vehicle: other): 109 % of control and 122 % of control
T/C (dose: 200.0 mg/kg/injection, schedule: Q01DX001 (oral), vehicle: other): 114 % of control
T/C (dose: 200.0 mg/kg/injection, schedule: Q01DX Z (ip), vehicle: water): 102 % of control
T/C (dose: 200.0 mg/kg/injection, schedule: Q01DX Z (oral), vehicle: water): 96 % of control
T/C (dose: 250.0 mg/kg/injection, schedule: Q#A X018 (oral), vehicle: other): 97 % of control
T/C (dose: 300.0 mg/kg/injection, schedule: Q01DX Z (oral), vehicle: water): 98 % of control
T/C (dose: 400.0 mg/kg/injection, schedule: Q01DX001 (oral), vehicle: other): 100 % of control
T/C (dose: 600.0 mg/kg/injection, schedule: Q01DX001 (oral), vehicle: other): 98 % of control
T/C (dose: 900.0 mg/kg/injection, schedule: Q01DX001 (oral), vehicle: other): 96 % of control

CCOC(=O)c1ncc2cnccn12
T/C (dose: 50.0 mg/kg/injection, schedule: Q01DX009 (ip), vehicle: saline): 92 % of control
T/C (dose: 100.0 mg/kg/injection, schedule: Q01DX009 (ip), vehicle: saline): 120 % of control
T/C (dose: 100.0 mg/kg/injection, schedule: Q04DX003 (ip), vehicle: saline): 107 % of control
T/C (dose: 200.0 mg/kg/injection, schedule: Q01DX009 (ip), vehicle: saline): 94 % of control
T/C (dose: 200.0 mg/kg/injection, schedule: Q04DX003 (ip), vehicle: saline): 104 % of control

COc1nccnn1
T/C (dose: 100.0 mg/kg/injection, schedule: Q01DX001 (ip), vehicle: saline with Tween-80): 93 % of control
T/C (dose: 200.0 mg/kg/injection, schedule: Q01DX001 (ip), vehicle: saline with Tween-80): 103 % of control
T/C (dose: 400.0 mg/kg/injection, schedule: Q01DX001 (ip), vehicle: saline with Tween-80): 101 % of control

Cn1cc(Cc2ccccc2)c(=O)n(C)c1=O
T/C (dose: 100.0 mg/kg/injection, schedule: Q04DX003 (ip), vehicle: saline with Tween-80): 100 % of control
T/C (dose: 200.0 mg/kg/injection, schedule: Q04DX003 (ip), vehicle: saline with Tween-80): 100 % of control
T/C (dose: 400.0 mg/kg/injection, schedule: Q04DX003 (ip), vehicle: saline with Tween-80): 106 % of control

NC(CSC(c1ccccc1)(c1ccccc1)c1ccc(Cl)cc1)C(=O)O (stereo unspecified)
T/C (dose: 1.3 mg/kg/injection, schedule: Q01DX009 (ip), vehicle: saline): 100 % of control
T/C (dose: 2.0 mg/kg/injection, schedule: Q01DX009 (ip), vehicle: saline): 118 % of control
T/C (dose: 6.25 mg/kg/injection, schedule: Q01DX009 (ip), vehicle: acetone): 151 % of control
T/C (dose: 12.5 mg/kg/injection, schedule: Q01DX009 (ip), vehicle: acetone): 156 % of control
T/C (dose: 12.5 mg/kg/injection, schedule: Q01DX009 (ip), vehicle: other): 163 % of control

CN=C(c1ccc(NC(=O)c2ccc(C(=O)Nc3ccc(C(=NC)N(C)C(C)=O)cc3)cc2)cc1)N(C)C(C)=O
T/C (dose: 4.0 mg/kg/injection, schedule: Q01DX Z (ip), vehicle: carboxymethylcellulose (CMC)): 98 % of control
T/C (dose: 6.0 mg/kg/injection, schedule: Q01DX Z (ip), vehicle: carboxymethylcellulose (CMC)): 104 % of control
T/C (dose: 8.0 mg/kg/injection, schedule: Q01DX Z (ip), vehicle: carboxymethylcellulose (CMC)): 90 % of control
T/C (dose: 10.0 mg/kg/injection, schedule: Q01DX Z (ip), vehicle: carboxymethylcellulose (CMC)): 101 % of control
T/C (dose: 12.5 mg/kg/injection, schedule: Q01DX Z (ip), vehicle: carboxymethylcellulose (CMC)): 110 % of control
T/C (dose: 50.0 mg/kg/injection, schedule: Q01DX Z (ip), vehicle: carboxymethylcellulose (CMC)): 87 % of control
